From patent EP1892243A1, “Polymorphic forms of ziprasidone sulphate salts” (KRKA, tovarna zdravil, d.d., Novo mesto, priority 2006, dated 2008)
Where a name gives a salt, the structure may show the parent alone.

Columns and labels:
Water-sorption analysis = type: physicochemical; details: for release of crystal water: at 0 % RH, nitrogen flow 200 ml/min; for release of crystal water / water sorption started at: 25°C; for water sorption started at: cycles from 0 % RH to 95 % RH
Procedure: An amount of 20 mg of zipasidone hydrogensulphate dihydrate was exposed to a water-sorption analysis (Surface Measurement Systems Ltd., London, UK; two complete 11-step circles from 0 % RH to 95 % RH at the temperature 25°C and nitrogen flow rate 200 ml/min; minimal retention time at the step when dm/dt < 0.002% is 10 minutes and maximal 360 minutes) and compared to the same test of Ziprasidone hydrochloride monohydrate.

[1] = Particle size by laser light scattering; type: physicochemical; details: drug substance used in the compositions of Example 12
Procedure: The average particle size is determined by laser light scattering using a Malvern-Mastersizer Apparatus MS 2000. The particles to be subjected to the particle size measurement are first suspended in isoparafinic oil (Isopar®) and then subjected to a size determination in a Malvern Mastersizer MS 2000 instrument. Usually, 100-800 mg of substance is dispersed in 5-8 ml of […]. According to manufacturer's information, the Malvern Mastersizers allow for a measurement of particle size distributions in the range of 20 nm to 2000 µm, with a precision of better than 0.5%. Particle sizes are determined by measuring the angular distribution of laser light scattered by a homogeneous suspension of particles. The size distribution is determined from the light scattering data using the theory of light scattering developed by Gustav Mie.

[2] = 2 weeks

Compound	release of crystal water (Water-sorption analysis)	water sorption started at (Water-sorption analysis)	stability to hydratation (Water-sorption analysis; compared with Ziprasidone hydrochloride salt)	Particle size [1]	HPLC purity of Ziprasidone after two-week stability test [2]
O=C1Cc2cc(CCN3CCN(c4nsc5ccccc45)CC3)c(Cl)cc2N1 [Ziprasidone hydrochloride monohydrate, reference compound]	release crystal water	30 % RH			
O.O.O=C1Cc2cc(CCN3CCN(c4nsc5ccccc45)CC3)c(Cl)cc2N1.O=S(=O)(O)O [Ziprasidone hydrogensulphate dihydrate, 5-[2-[4-(1,2-benzisothiazol-3-yl)-1-piperazinyl]ethyl]-6-chloro-1,3-dihydro-2H-indol-2-one hydrogensulphate dihydrate]	does not release crystal water	50 % RH	more stable to hydratation	26 µm	99.7%
